Values quoted from earlier work as cited in patent US20250107560A1, “CHRONOBIOLOGICAL FOOD FOR INFANTS AND METHOD FOR PRODUCING SAME” (priority 2022, published 2025).

Tests used:
[1] = unlike D-tryptophan
carrier albumin = carrier albumin (Homo sapiens, UniProt P02768); details: compared with D-tryptophan
carrier albumin, sequence (P02768 25-609): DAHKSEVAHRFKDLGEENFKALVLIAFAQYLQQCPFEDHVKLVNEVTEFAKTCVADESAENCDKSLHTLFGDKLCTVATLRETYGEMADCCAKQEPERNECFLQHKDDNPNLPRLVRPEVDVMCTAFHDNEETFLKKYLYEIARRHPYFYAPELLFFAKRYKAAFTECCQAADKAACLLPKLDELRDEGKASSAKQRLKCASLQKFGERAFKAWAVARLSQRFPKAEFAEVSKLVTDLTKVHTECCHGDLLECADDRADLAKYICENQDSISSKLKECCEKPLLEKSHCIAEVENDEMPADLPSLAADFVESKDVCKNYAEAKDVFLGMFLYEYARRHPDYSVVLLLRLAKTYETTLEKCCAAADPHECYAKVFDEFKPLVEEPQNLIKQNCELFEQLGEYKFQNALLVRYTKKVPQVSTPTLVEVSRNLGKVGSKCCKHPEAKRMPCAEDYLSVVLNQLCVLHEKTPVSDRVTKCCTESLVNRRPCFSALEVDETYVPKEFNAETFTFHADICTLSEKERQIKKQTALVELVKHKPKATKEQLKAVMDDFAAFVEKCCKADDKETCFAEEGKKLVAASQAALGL

| binding to the carrier albumin, relative to D-tryptophan (carrier albumin) | biological half-life (in vivo) | SMILES | toxicity [1] | excreted in the urine as 6-sulfatoxymelatonin (metabolized in the liver) |
| --- | --- | --- | --- | --- |
| 100 times |  | N[C@@H](Cc1c[nH]c2ccccc12)C(=O)O [L-tryptophan] | non-toxic |  |
|  | 30-45 minutes | COc1ccc2[nH]cc(CCNC(C)=O)c2c1 [Melatonin, melatonin] |  | approx. 95% |
